From patent US20250134938A1 (priority 2023, published 2025)
“And” between values parts separate entries of the source, which are not always exact repeats. Equal entries are not always repeated.

Columns and labels:
[1] = DPPH radical scavenging assay; format: biochemical; details: culture supernatant; relative to 2 mM ascorbic acid
Procedure: Louis, MO, USA) radical scavenging assay. […] 0.1 mM DPPH diluted in methanol was used in the experiment. […] The reaction mixture was centrifuged at 13,000 rpm for 1 minute. 200 μL of the supernatant was dispensed into a 96-well plate, and absorbance was measured at 517 nm using a microplate reader (Epoch microplate reader, Biotek Instruments, Inc., Winooski, VT, USA). DPPH radical scavenging activity was calculated using the following equation and expressed as a relative value to the DPPH radical scavenging activity of the positive control group, 2 mM ascorbic acid. DPPH Radical Scavenging Activity (%)=(1-(Absorbance of Sample/Absorbance of Control Group))×100

RAW 264.7 cells = test: NO production by RAW 264.7 macrophages (Griess reagent); format: cell-based, mouse; details: MOI 100, 24 hours, LPS 1 μg/mL as 100%
Procedure: RAW 264.7 cells (KCLB40071), which are mouse macrophages, were purchased from the Korean Cell Line Bank. They were inoculated to DMEM (high-glucose Dulbecco's modified Eagle's medium; GIBCO, Grand Island, NY, USA) containing 10% (v/v) fetal bovine serum (FBS, GIBCO) and 1% (v/v) penicillin-streptomycin (P/S, GIBCO), cultured at 37° C. in a 5% CO2 incubator (Thermo Fisher Scientific, Waltham, MA, USA), and then detached using a cell scraper (SPL, Pocheon, Korea).
Cell precipitates were harvested by centrifugation at 10,000 rpm for 5 minutes at 4° C. for 5 times. Afterward, they were washed three times with DPBS (Dulbecco's phosphate buffered saline; Welgene, Gyeongsan, Korea). […]
NO production by RAW 264.7 macrophages was measured using a Griess reagent. […] 100 µL of the culture was added to a 96-well plate and, after adding 100 μL of a Griess reagent A and a Griess reagent B of equal amounts, reaction was conducted for 15 minutes in the dark, and absorbance was measured at 540 nm with a microplate reader. A standard curve for NO production versus absorbance was constructed using a sample of 250 µM NaNO2 diluted 2-fold with DMEM to […], and NO concentration was calculated from the measured absorbance value.

[2] = Acid resistance in artificial gastric fluid; format: physicochemical; details: pH 2.5, 2 h
Procedure: Artificial gastric fluid was prepared by adjusting the pH of 100 mM glycine-HCl buffer to 2.5. After inoculating Lactobacillus seed culture incubated at 37° C. for 20 hours to 1% (v/v) in 4 mL of MRS broth, the culture was incubated at 37° C. for 16 hours. The culture was centrifuged at 13000 rpm for 1 minute and the obtained cell precipitate was washed twice with 0.88% (w/v) NaCl (sterile physiological saline). The washed pellet was resuspended in 4 mL of the artificial gastric fluid and incubated at 37° C. After 2 hours of incubation, 1 mL of the sample was taken and centrifuged at 13000 rpm for 1 minute to obtain a cell pellet, which was washed three times with sterile physiological saline and resuspended in 1 mL of sterile physiological saline. After decimally diluting with 9 mL saline, followed by smearing on LAB Petrifilm, the sample was incubated at 37° C. for 1-2 days and the live bacteria were counted (Table 12). Acid resistance was calculated using the following equation. The sample at 0 hour of incubation was used as a control group. [formula]

[3] = Bile resistance in artificial bile; format: physicochemical; details: 0.3% oxgall, 37° C., 24 hours
Procedure: Artificial bile was prepared by adding 3% of a 10% Bacto oxgall (Becton, Dickinson and Company) solution filtered through a 0.22-μm membrane to sterilized MRS broth to give a final oxgall concentration of 0.3%. […] 1 mL of the sample was taken, diluted decimally with 9 mL of saline, smeared on LAB Petrifilm, and incubated at 37° C. for 1-2 days to determine the number of live bacteria (Table 13). Bile resistance was calculated using the following equation. A sample incubated in MRS broth without addition of oxgall was used as a control group.

[4] = Pancreatic juice resistance in artificial pancreatic juice; format: physicochemical; details: 0.5% pancreatin, listed as LGG
Procedure: Artificial pancreatic juice was prepared by adding 5% of a 10% pancreatin solution (0.85% NaCl, pH 8.0) filtered through a 0.22-μm membrane to sterilized MRS broth to a final pancreatin concentration of 0.5%. A Lactobacillus seed culture obtained by incubating at 37° C. for 20 hours after inoculation to MRS broth was added to 5 mL of the artificial pancreatic juice to 1% (v/v) and incubated at 37° C. […] Pancreatic juice resistance was calculated using the following equation. A sample at 0 hour of incubation was used as a control group. [formula]

Caco-2 cells = test: Ability of intestinal adherence; format: cell-based, human; details: MOI 200, 2 hours, listed as LGG
Procedure: Caco-2 cells (human colorectal adenocarcinoma cells, HTB-37™), which are enterocyte-like cells, purchased from the ATCC were cultured in DMEM medium supplemented with 10% (v/v) FBS (Cornig) and 1% (v/v) P/S at 37° C. under 5% CO2 in an incubator (Thermo Fisher Scientific, Waltham, MA, USA). 0.25% trypsin-EDTA (GIBCO) was used to detach the cells from a culture flask.
500 μL of the Caco-2 cells were seeded in a 24-well plate at a density of 5×10^5 cells/well and cultured for 3 days at 37° C. and 5% CO2. The 24-well plate in which the Caco-2 cells were cultured was washed twice with 500 μL of DMEM medium supplemented with 10% FBS. After treating with Lactobacilli at a concentration of MOI 200, the cells were incubated at 37° C. and 5% CO2 for 2 hours. After the incubation, each well was washed four times with 500 μL of DPBS to remove the unattached strain. 200 μL of 0.25% trypsin-EDTA was dispensed into each well and incubated for 5 minutes at 37° C. and 5% CO2. The detached Caco-2 cells and strain were collected in a 1.5-mL tube together with […] of DPBS and centrifuged at 13,000 rpm for 1 minute to harvest a cell pellet, which was washed twice with 1 mL of DPBS. […] After decimal dilution, followed by smearing on Petrifilm and incubation at 37° C. for 24 hours, the number of live bacteria was determined. The ability of intestinal adhesion was calculated by the following equation.

[5] = Number of live bacteria and pH of coconut fermented milk; details: coconut milk fermented at 37° C. for 16 hours; listed as LGG
Procedure: Then, cells were harvested by centrifuging the Lactobacillus culture (13,000 rpm, 1 minute, 4° C.). The cell precipitate was washed 3 times with 0.85% (w/v) NaCl (sterile physiological saline) and then suspended in 1 mL of sterile physiological saline (The concentration of the suspension was 1×10^8 CFU/mL). (2) 1% (v/v) of the suspended strain was inoculated to 3 mL of coconut milk with a solid content of 8 wt %, and coconut fermented milk was prepared by fermenting at 37° C. for 16 hours. After measuring the pH of the coconut fermented milk prepared in Example 11-1, it was decimally diluted with sterile physiological saline and the number of live bacteria was counted on a […] lactic acid bacteria count plate (3M Company, St. Paul, MN, USA) after culturing for 1 to 2 days.

Lactobacillus rhamnosus GG
DPPH radical scavenging activity (%) [1]: 97.2% | NO production (% of positive control group) (RAW 264.7 cells): 18.5 ± 3.2% | NO production (% of positive control group) (RAW 264.7 cells; listed as LGG): 18.47% | Acid resistance (%) Average [2]: 83.3% | Acid resistance (%) Average ([2]; listed as LGG): 83.3 ± 2.3% | Acid resistance (%) ([2]; single replicate, listed as LGG): 81.2% and 85.8% and 83.0% | Bile resistance (%) [3]: 63.6 ± 9.3% | live bacteria 0 h (CFU/mL) ([4]; 0 h (control)): 1.30 × 10^9 CFU/mL and 1.73 × 10^9 CFU/mL and 1.12 × 10^9 CFU/mL | live bacteria 2 h (CFU/mL) ([4]; 37° C., 2 h): 3.14 × 10^9 CFU/mL and 3.87 × 10^9 CFU/mL and 2.74 × 10^9 CFU/mL | Pancreatic juice resistance (%) Average ([4]; average): 104.1% and 104.1 ± 0.3% | Pancreatic juice resistance (%) ([4]; single replicate): 104.2% and 103.8% and 104.3% | Ability of intestinal adherence (%) (Caco-2 cells): 75.5% and 75.5 ± 9.3% | pH [5]: 3.57 and 3.57 ± 0.06
